Assay results: PubChem BioAssay (NCI)
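Cells were grown in 96-well plates and exposed to each compound for 48 hours at five concentrations; endpoints were interpolated linearly between bracketing concentrations, or set to the highest concentration if not reached. Definition used: TGI = concentration required for complete inhibition of growth.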

Experiments:
Experiment in all cases: growth of human tumour cells (NCI), 48 h
RPMI-8226 leukemia = system: RPMI-8226 leukemia
HL-60(TB) leukemia = system: HL-60(TB) leukemia
T-47D breast = system: T-47D breast
U251 CNS = system: U251 CNS
SK-MEL-28 melanoma = system: SK-MEL-28 melanoma
IGROV1 ovarian = system: IGROV1 ovarian
SF-539 CNS = system: SF-539 CNS
786-0 renal = system: 786-0 renal
TK-10 renal = system: TK-10 renal
SK-OV-3 ovarian = system: SK-OV-3 ovarian
PC-3 prostate = system: PC-3 prostate
HCT-15 colon = system: HCT-15 colon
SF-268 CNS = system: SF-268 CNS
MDA-MB-231 breast = system: MDA-MB-231 breast
MDA-MB-435 = system: MDA-MB-435
CAKI-1 renal = system: CAKI-1 renal
A549 NSCLC = system: A549 NSCLC
OVCAR-4 ovarian = system: OVCAR-4 ovarian
UACC-257 melanoma = system: UACC-257 melanoma
DU-145 prostate = system: DU-145 prostate
HCT-116 colon = system: HCT-116 colon
MOLT-4 leukemia = system: MOLT-4 leukemia
OVCAR-8 ovarian = system: OVCAR-8 ovarian
EKVX NSCLC = system: EKVX NSCLC
K-562 leukemia = system: K-562 leukemia
COLO 205 colon = system: COLO 205 colon
A498 renal = system: A498 renal
CCRF-CEM leukemia = system: CCRF-CEM leukemia
SK-MEL-2 melanoma = system: SK-MEL-2 melanoma
SW-620 colon = system: SW-620 colon
MCF7 breast = system: MCF7 breast
HOP-62 NSCLC = system: HOP-62 NSCLC
HCC-2998 colon = system: HCC-2998 colon
SK-MEL-5 melanoma = system: SK-MEL-5 melanoma
SR leukemia = system: SR leukemia
UACC-62 melanoma = system: UACC-62 melanoma
NCI-H460 lung = system: NCI-H460 lung
NCI-H226 lung = system: NCI-H226 lung
SNB-75 CNS = system: SNB-75 CNS
UO-31 renal = system: UO-31 renal
ACHN renal = system: ACHN renal
HT29 colon = system: HT29 colon
HS 578T breast = system: HS 578T breast
SN12C renal = system: SN12C renal
NCI-H23 lung = system: NCI-H23 lung
MALME-3M melanoma = system: MALME-3M melanoma
M14 melanoma = system: M14 melanoma
OVCAR-5 ovarian = system: OVCAR-5 ovarian
LOX IMVI melanoma = system: LOX IMVI melanoma
NCI/ADR-RES ovarian = system: NCI/ADR-RES ovarian
SNB-19 CNS = system: SNB-19 CNS
KM12 colon = system: KM12 colon
NCI-H522 lung = system: NCI-H522 lung
SF-295 CNS = system: SF-295 CNS
RXF 393 renal = system: RXF 393 renal
OVCAR-3 ovarian = system: OVCAR-3 ovarian
HOP-92 NSCLC = system: HOP-92 NSCLC

In the case of `O=C(CC(C(=O)c1cccs1)c1ccsc1)c1ccc(Cl)s1` (stereo unspecified), the TGI (RPMI-8226 leukemia) is reported as > 100 µM, the TGI (HL-60(TB) leukemia) is reported as > 100 µM and the TGI (T-47D breast) is reported as > 100 µM. For the same molecule, the TGI (U251 CNS) was > 100 µM, the TGI (SK-MEL-28 melanoma) was > 100 µM and the TGI (IGROV1 ovarian) was > 100 µM. The TGI (SF-539 CNS) was > 100 µM, the TGI (786-0 renal) was > 100 µM and the TGI (TK-10 renal) was > 100 µM. For the same molecule, the TGI (SK-OV-3 ovarian) was > 100 µM, the TGI (PC-3 prostate) was > 100 µM and the TGI (HCT-15 colon) was > 100 µM. The TGI (SF-268 CNS) was > 100 µM, the TGI (MDA-MB-231 breast) was > 100 µM and the TGI (MDA-MB-435) was > 100 µM. The TGI (CAKI-1 renal) was > 100 µM, the TGI (A549 NSCLC) was > 100 µM and the TGI (OVCAR-4 ovarian) was > 100 µM. For the same molecule, the TGI (UACC-257 melanoma) was > 100 µM, the TGI (DU-145 prostate) was > 100 µM and the TGI (HCT-116 colon) was > 100 µM. For the same molecule, the TGI (MOLT-4 leukemia) was > 100 µM, the TGI (OVCAR-8 ovarian) was > 100 µM and the TGI (EKVX NSCLC) was > 100 µM. The TGI (K-562 leukemia) was > 100 µM, the TGI (COLO 205 colon) was > 100 µM and the TGI (A498 renal) was > 100 µM. For the same molecule, the TGI (CCRF-CEM leukemia) was > 100 µM, the TGI (SK-MEL-2 melanoma) was > 100 µM and the TGI (SW-620 colon) was > 100 µM. The TGI (MCF7 breast) was > 100 µM, the TGI (HOP-62 NSCLC) was > 100 µM and the TGI (HCC-2998 colon) was > 100 µM. For the same molecule, the TGI (SK-MEL-5 melanoma) was > 100 µM, the TGI (SR leukemia) was > 100 µM and the TGI (UACC-62 melanoma) was > 100 µM. For the same molecule, the TGI (NCI-H460 lung) was > 100 µM, the TGI (NCI-H226 lung) was > 100 µM and the TGI (SNB-75 CNS) was > 100 µM. For the same molecule, the TGI (UO-31 renal) was > 100 µM, the TGI (ACHN renal) was > 100 µM and the TGI (HT29 colon) was > 100 µM. For the same molecule, the TGI (HS 578T breast) was > 100 µM, the TGI (SN12C renal) was > 100 µM and the TGI (NCI-H23 lung) was > 100 µM. For the same molecule, the TGI (MALME-3M melanoma) was > 100 µM, the TGI (M14 melanoma) was > 100 µM and the TGI (OVCAR-5 ovarian) was > 100 µM. The TGI (LOX IMVI melanoma) was > 100 µM, the TGI (NCI/ADR-RES ovarian) was > 100 µM and the TGI (SNB-19 CNS) was > 100 µM. The TGI (KM12 colon) was > 100 µM.

For `CCSc1nc(N/N=C/c2cccs2)c2cnn(CO)c2n1`, the TGI (HL-60(TB) leukemia) was 42.1 µM, the TGI (T-47D breast) was 18.5 µM and the TGI (U251 CNS) was 30.1 µM. For the same molecule, the TGI (SK-MEL-28 melanoma) was 29.3 µM, the TGI (IGROV1 ovarian) was 10.7 µM and the TGI (NCI-H522 lung) was 15.5 µM. The TGI (SF-295 CNS) was 29.8 µM, the TGI (SF-539 CNS) was 26 µM and the TGI (786-0 renal) was 6.34 µM. For the same molecule, the TGI (TK-10 renal) was 21.9 µM, the TGI (SK-OV-3 ovarian) was 29.4 µM and the TGI (PC-3 prostate) was 21.4 µM. It also gave a TGI (HCT-15 colon) of 15.7 µM, a TGI (SF-268 CNS) of 23.7 µM and a TGI (MDA-MB-231 breast) of 54.8 µM. It also gave a TGI (MDA-MB-435) of 18.9 µM, a TGI (CAKI-1 renal) of 13.7 µM and a TGI (A549 NSCLC) of 24.1 µM. The TGI (OVCAR-4 ovarian) was > 100 µM, the TGI (UACC-257 melanoma) was 26.4 µM and the TGI (DU-145 prostate) was 24.3 µM. It also gave a TGI (HCT-116 colon) of 16.6 µM, a TGI (OVCAR-8 ovarian) of 14.9 µM and a TGI (EKVX NSCLC) of 25.6 µM. For the same molecule, the TGI (K-562 leukemia) was 52.7 µM, the TGI (COLO 205 colon) was 29.7 µM and the TGI (A498 renal) was 9.53 µM. For the same molecule, the TGI (SK-MEL-2 melanoma) was 24.4 µM, the TGI (SW-620 colon) was 24.2 µM and the TGI (MCF7 breast) was 14.4 µM. For the same molecule, the TGI (HOP-62 NSCLC) was 14.9 µM, the TGI (SK-MEL-5 melanoma) was 12.9 µM and the TGI (SR leukemia) was 26.7 µM. For the same molecule, the TGI (UACC-62 melanoma) was 22.5 µM, the TGI (NCI-H460 lung) was 18.6 µM and the TGI (NCI-H226 lung) was 9.09 µM. It also gave a TGI (SNB-75 CNS) of 28.7 µM, a TGI (UO-31 renal) of 10.2 µM and a TGI (ACHN renal) of 22.6 µM. It also gave a TGI (HT29 colon) of 13.4 µM, a TGI (HS 578T breast) of 15.3 µM and a TGI (RXF 393 renal) of 13.9 µM. The TGI (SN12C renal) was 30.6 µM, the TGI (NCI-H23 lung) was 17.3 µM and the TGI (MALME-3M melanoma) was 26.9 µM. It also gave a TGI (OVCAR-3 ovarian) of 19 µM, a TGI (M14 melanoma) of 22.9 µM and a TGI (OVCAR-5 ovarian) of 27 µM. The TGI (HOP-92 NSCLC) was > 100 µM, the TGI (NCI/ADR-RES ovarian) was 15.9 µM and the TGI (SNB-19 CNS) was 27.1 µM. The TGI (KM12 colon) was 12.4 µM.

For `COc1ccc2cc1Oc1ccc(cc1)C[C@@H]1c3cc(c(OC)cc3CCN1C)Oc1c(OC)c(OC)cc3c1[C@H](C2)N(C)CC3`, the TGI (HL-60(TB) leukemia) was 30.8 µM, the TGI (U251 CNS) was > 100 µM and the TGI (IGROV1 ovarian) was 72.9 µM. The TGI (NCI-H522 lung) was 33.4 µM, the TGI (SF-295 CNS) was 34.2 µM and the TGI (SF-539 CNS) was 23.6 µM. The TGI (786-0 renal) was 89.6 µM, the TGI (TK-10 renal) was 39.5 µM and the TGI (SK-OV-3 ovarian) was > 100 µM. It also gave a TGI (HCT-15 colon) of 25.1 µM, a TGI (SF-268 CNS) of 60.8 µM and a TGI (MDA-MB-231 breast) of 29.9 µM. For the same molecule, the TGI (OVCAR-4 ovarian) was 55.6 µM, the TGI (UACC-257 melanoma) was 28.9 µM and the TGI (HCT-116 colon) was > 100 µM. For the same molecule, the TGI (OVCAR-8 ovarian) was 35.6 µM, the TGI (K-562 leukemia) was 23 µM and the TGI (A498 renal) was 42.5 µM. The TGI (CCRF-CEM leukemia) was 51.8 µM, the TGI (MCF7 breast) was 31 µM and the TGI (HCC-2998 colon) was 25.8 µM. The TGI (SK-MEL-5 melanoma) was 25.1 µM, the TGI (SR leukemia) was 9.91 µM and the TGI (NCI-H460 lung) was 29.7 µM. For the same molecule, the TGI (SNB-75 CNS) was 27.3 µM, the TGI (ACHN renal) was 28.5 µM and the TGI (HS 578T breast) was 42.3 µM. The TGI (RXF 393 renal) was 13.7 µM, the TGI (NCI-H23 lung) was 34.1 µM and the TGI (OVCAR-3 ovarian) was > 100 µM. For the same molecule, the TGI (M14 melanoma) was 37.1 µM and the TGI (SNB-19 CNS) was 50 µM.
